What all share (type): physicochemical
Data set [1] can be described thus: Rate of detritylation and degradation of 5'-trityldeoxynucleosides using ZnBr2 at room temperature (Table III). Conditions: for Detritylation time: 100% detritylation; for Detritylation %: <1 min. An excerpt: (§1) The procedure merely requires contacting the reactants preferably in a reaction solvent and detritylation occurs within short reaction times. The Lewis acid is normally suspended in the reaction solvent and the solvent is usually water-free to prevent reaction with the Lewis acid to form protic acids. In present experience, nitromethane is the preferred solvent although a variety of other solvents can be used, e.g. dioxane and tetrahydrofuran and mixtures of such solvents with each other and other solvents such as acetone, methylene chloride, and the like.
The results obtained with various tritylthymidines at room temperature with zinc bromide is give in Table III.
The Rate of Detritylation and Degradation of 5'-
Trityldeoxynucleosides Using ZnBr2 at Room

Data set [2] can be described thus: Rate of detritylation of various tritylthymidines using saturated ZnBr2 in nitromethane at 0° C. (Table IV). Conditions: for % Detritylation: at the time of the same line (1, 10 or 30 min); for Detritylation time: time for the % detritylation of the same line.
Source text: as §1
and at 0° C. in Table IV.
The Rate of Detritylation of Various Tritylthymidines
Using Saturated ZnBr2 in Nitromethane at 0° C.

Data set [3] in a line: Protic acid hydrolysis rates of triarylmethyl groups attached to the 5'-hydroxyl of deoxynucleosides (Table VIII). As to conditions: 2% toluenesulfonic acid in chloroform:methanol (7:3). How it is done:
The 5'-triarylmethyldeoxynucleosides were treated with protic and Lewis acids using carefully controlled conditions. The results of these studies are also recorded in Tables VII and VIII. […] The rates are more variable with protic acids.
^1 Reaction conditions were 2% toluenesulfonic acid in
chloroform:methanol (7:3). Aliquots were removed from the reaction
solution, quenched with ammonium acetate and analyzed visually after tlc
and exposure to HCl vapors. Time points were taken at 15, 30, 45, 60, 90,

The nature of data set [4]: Rate of detritylation and depurination using various solutions (Table II). Conditions: for Detritylation time: 100% detritylation.
Source text: A particularly preferred embodiment of the present invention is the detritylation of the 5'-O trityl nucleosides, deoxynucleotides, oligonucleotides, oligodeoxynucleotides, polynucleotides and polydeoxynucleotides using a Lewis acid, particularly zinc bromide, although other Lewis acids can also be employed, e.g. titanium tetrachloride. […] The process is also specific for 5'-O-trityl and thus provides a very practical procedure to permit production of 3'-O-trityl blocked nucleosides by reaction with the 3'-O and 5'-O ditritylated compound.
as §1
The Rate of Detritylation and Depurination of 5'-
Dimethoxytrityl-N--benzoyldeoxyadenosine Using
*All depurination results summarized in this communication were obtained
by analyzing reaction mixtures using reverse phase high pressure liquid
chromatography. Estimates of detritylation times were by thin layer
**A nitromethane solution saturated with ZnBr2 is approximately 0.1

A short description of data set [5]: Spectral characteristics of selected triarylmethyl alcohols (Table IX). As to conditions: saturated ZnBr2 nitromethane solution; for Extinction Coefficient: at the λ maximum of the same line. How it is done:
of selected triarylmethyl alcohols.
^2 All spectra were taken in a saturated ZnBr2 nitromethane
solution. All spectra were recorded on a Carey model 21, scanning from 35

Several values for one entry are separate records, joined by “and”; a condition that tells them apart may be missing. Identical values can stand only once.

Turning to `COc1ccc(C(OC[C@H]2O[C@@H](n3cc(C)c(=O)[nH]c3=O)C[C@@H]2O)(c2ccccc2)c2ccc(OC)cc2)cc1` [5'-Dimethoxytritylthymidine], in data set [1], the Degradation time turned out to be 24 h, the Detritylation time is on record as below 1 min and the Detritylation % is 100%. Moreover, in data set [2], the “% Detritylation” value came to 50% and the Detritylation time was 1 min. For the same compound, the “Time to Complete Hydrolysis” value in data set [3] is 30 s.

Regarding `COc1ccc(C(OC[C@H]2O[C@@H](n3cnc4c(NC(=O)c5ccccc5)ncnc43)C[C@@H]2O)(c2ccccc2)c2ccc(OC)cc2)cc1` [5'-O-dimethoxytrityl-N-benzoyldeoxyadenosine], the Depurination time in data set [4] (0.5% toluenesulfonic acid/CHCl3:CH3OH (7:3), 0° C., 50% depurination) worked out at 8 h; in data set [4] (2% toluenesulfonic acid/CHCl3:CH3OH (7:3), 18° C., 50% depurination), 0.083 h; in data set [4] (satd. ZnBr2/CH3NO2, 0° C., <5% depurination), 21 h; in data set [4] (satd. ZnBr2/CH3NO2, 18° C., 50% depurination) it was 10 h. Moreover, the Detritylation time was 10 min in data set [4] (0.5% toluenesulfonic acid/CHCl3:CH3OH (7:3), 0° C.); below 1 min in data set [4] (2% toluenesulfonic acid/CHCl3:CH3OH (7:3), 18° C.); 10 min in data set [4] (satd. ZnBr2/CH3NO2, 0° C.); below 1 min in data set [4] (satd. ZnBr2/CH3NO2, 18° C.). Besides, the Detritylation % in data set [4] (0.5% toluenesulfonic acid/CHCl3:CH3OH (7:3), 0° C., 10 min) was 100%; in data set [4] (2% toluenesulfonic acid/CHCl3:CH3OH (7:3), 18° C., <1 min) it was 100%; in data set [4] (satd. ZnBr2/CH3NO2, 0° C., 10 min), 100%; in data set [4] (satd. ZnBr2/CH3NO2, 18° C., <1 min), 100%. In addition, the Depurination % is 50% in data set [4] (0.5% toluenesulfonic acid/CHCl3:CH3OH (7:3), 0° C., 8 hrs); 50% in data set [4] (2% toluenesulfonic acid/CHCl3:CH3OH (7:3), 18° C., 5 min); below 5% in data set [4] (satd. ZnBr2/CH3NO2, 0° C., 21 hrs); 50% in data set [4] (satd. ZnBr2/CH3NO2, 18° C., 10 hrs). For the same compound, the “Time to Complete Hydrolysis” value in data set [3] worked out at 30 s.

Regarding `COc1ccc(C(OC[C@H]2O[C@@H](n3ccc(NC(=O)c4ccccc4)nc3=O)C[C@@H]2O)(c2ccccc2)c2ccc(OC)cc2)cc1` [5'-O-dimethoxytrityl-N-benzoyldeoxycytidine], in data set [1], the Degradation time amounted to 24 h, the Detritylation time was below 1 min and the Detritylation % stood at 100%. Besides, in data set [3], the “Time to Complete Hydrolysis” value amounted to 30 s.

In data set [1], `COc1ccc(C(OC[C@H]2O[C@@H](n3cnc4c(=O)[nH]c(NC(=O)C(C)C)nc43)C[C@@H]2O)(c2ccccc2)c2ccc(OC)cc2)cc1` [5'-O-dimethoxytrityl-N-isobutyryldeoxyguanosine] showed a Degradation time of 50 h, a Detritylation time below 1 min and a Detritylation % of 100%. For the same compound, the “Time to Complete Hydrolysis” value in data set [3] was found to be 30 s.

In the case of `Cc1cn([C@H]2C[C@H](O)[C@@H](COC(c3ccccc3)(c3ccccc3)c3ccccc3)O2)c(=O)[nH]c1=O` [5'-Tritylthymidine], in data set [2], the “% Detritylation” value turned out to be 50% and the Detritylation time is listed as 10 min.

Take `COc1ccccc1C(OC[C@H]1O[C@@H](n2cnc3c(=O)[nH]c(NC(=O)C(C)C)nc32)C[C@@H]1O)(c1ccccc1)c1ccccc1OC` [R1 = R2 = b; R3 = a, G]: in data set [3], the “Time to Complete Hydrolysis” value worked out at 45 s and the “t1/2 in H+” value amounted to 15 s.

With `COc1ccccc1C(O)(c1ccccc1)c1ccccc1OC` [R1 = R2 = b; R3 = a], in data set [5], the “λ Maximum(s)” value was 423 nanometers and 503 nanometers and 586 nanometers.

In the case of `COc1ccccc1C(OC[C@H]1O[C@@H](n2ccc(NC(=O)c3ccccc3)nc2=O)C[C@@H]1O)(c1ccccc1OC)c1cccc2ccccc12` [R1 = R2 = b; R3 = n, C], the “Time to Complete Hydrolysis” value in data set [3] came to 120 s.

`COc1ccccc1C(OC[C@H]1O[C@@H](n2cc(C)c(=O)[nH]c2=O)C[C@@H]1O)(c1ccccc1OC)c1cccc2ccccc12` [R1 = R2 = b; R3 = n, T]: in data set [3], the “Time to Complete Hydrolysis” value was determined as 90 s and the “t1/2 in H+” value was found to be 45 s.

As for `COc1ccccc1C(O)(c1ccccc1OC)c1cccc2ccccc12` [R1 = R2 = b; R3 = n], in data set [5], the “λ Maximum(s)” value is on record as 586 nanometers and the “Extinction Coefficient” value was found to be 15500 Molar^-1 cm^-1.

Take `COc1ccc(C(O)(c2ccccc2)c2cccc3ccccc23)cc1` (stereo not shown) [R1 = a; R2 = c; R3 = n]: in data set [5], the “λ Maximum(s)” value is 545 nanometers and 455 nanometers; the “Extinction Coefficient” value is 25000 Molar^-1 cm^-1 and 28000 Molar^-1 cm^-1.

Turning to `OC(c1ccccc1)(c1ccc(F)cc1)c1cccc2ccccc12` (stereo not shown) [R1 = a; R2 = e; R3 = n], the “λ Maximum(s)” value in data set [5] (listed as R1 = a, R2 = n, R3 = e) was 577 nanometers and 421 nanometers.

With `Cc1ccc(C(OC[C@H]2O[C@@H](n3cnc4c(NC(=O)c5ccccc5)ncnc43)C[C@@H]2O)(c2ccccc2)c2ccccc2)cc1` [R1 = h; R2 = R3 = a, A], in data set [3], the “Time to Complete Hydrolysis” value came out at 240 s and the “t1/2 in H+” value stood at 60 s.

On to `Cc1ccc(C(O)(c2ccccc2)c2ccccc2)cc1` [R1 = h; R2 = R3 = a], for which, in data set [5], the “λ Maximum(s)” value came out at 452 nanometers and the “Extinction Coefficient” value was found to be 42000 Molar^-1 cm^-1.

Regarding `COc1ccc(C(OC[C@H]2O[C@@H](n3cc(C)c(=O)[nH]c3=O)C[C@@H]2O)(c2ccccc2)c2cccc3ccccc23)cc1` (stereo partly shown) [R1 = n; R2 = c; R3 = a, T], in data set [3], the “Time to Complete Hydrolysis” value is 45 s and the “t1/2 in H+” value came out at 30 s.

On to `Cc1cn([C@H]2C[C@H](O)[C@@H](COC(c3ccccc3)(c3ccc(F)cc3)c3cccc4ccccc34)O2)c(=O)[nH]c1=O` (stereo partly shown) [R1 = n; R2 = e; R3 = a, T], for which, in data set [3], the “Time to Complete Hydrolysis” value is above 600 s and the “t1/2 in H+” value was 180 s.
